Data: ChEMBL document CHEMBL1201862, “PubChem BioAssay data set” (2004)
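The compound was tested at five concentrations on cells cultured in 96-well plates, with a 48-hour exposure period. GI50 marks 50% less growth.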 The source made the active and inactive calls. Cut-off read from the data, not from the text of the source: active = GI50 up to about 1.1 µM and inactive = higher.

Key:
Assay in all cases: NCI anticancer screen, dose series, 48 h
SK-MEL-28 = test system: SK-MEL-28
HOP-62 = test system: HOP-62
SF-539 = test system: SF-539
NCI-H522 = test system: NCI-H522
UACC-62 = test system: UACC-62
SNB-19 = test system: SNB-19
KM12 = test system: KM12
LOX IMVI = test system: LOX IMVI
SK-MEL-5 = test system: SK-MEL-5
ACHN = test system: ACHN
SNB-78 = test system: SNB-78
HOP-92 = test system: HOP-92
786-0 = test system: 786-0
NCI-H460 = test system: NCI-H460
SN12C = test system: SN12C
UO-31 = test system: UO-31
COLO 205 = test system: COLO 205
CAKI-1 = test system: CAKI-1
BT-549 = test system: BT-549
SR = test system: SR

Measured: GI50

COc1ccc(C=O)c([N+](=O)[O-])c1
inactive: SK-MEL-28 > 100 µM | HOP-62 40.7 µM | SF-539 20.4 µM | NCI-H522 > 100 µM | UACC-62 52.6 µM | SNB-19 64.6 µM | KM12 22.8 µM | LOX IMVI 22.1 µM | SK-MEL-5 17 µM | ACHN 58.6 µM | SNB-78 42.4 µM | HOP-92 81.3 µM | 786-0 66.2 µM | NCI-H460 37.5 µM | SN12C 41.7 µM | UO-31 37.7 µM | COLO 205 53.3 µM

CC(C)c1ccccc1NC(=O)/C(Cl)=C1/Sc2ccccc2NC1=O
inactive: SK-MEL-28 33.4 µM | HOP-62 30.8 µM | SF-539 21.9 µM | NCI-H522 17.9 µM | UACC-62 20.3 µM | SNB-19 38.5 µM | CAKI-1 17.5 µM | LOX IMVI 29.2 µM | SK-MEL-5 20.6 µM | ACHN 37.4 µM | SNB-78 30.5 µM | HOP-92 11.6 µM | 786-0 30.5 µM | NCI-H460 34.5 µM | SN12C 34 µM | UO-31 32.8 µM | COLO 205 21.4 µM

O=C(CCC(=O)c1ccsc1)c1ccsc1
inactive: SK-MEL-28 > 100 µM | HOP-62 > 100 µM | BT-549 > 100 µM | SF-539 > 100 µM | NCI-H522 > 100 µM | UACC-62 > 100 µM | SNB-19 > 100 µM | KM12 > 100 µM | SR > 100 µM | CAKI-1 > 100 µM | LOX IMVI > 100 µM | SK-MEL-5 > 100 µM | ACHN > 100 µM | HOP-92 > 100 µM | 786-0 > 100 µM | NCI-H460 > 100 µM | SN12C > 100 µM | UO-31 > 100 µM | COLO 205 > 100 µM

CCOC(=O)C1(Cc2ccccc2)CCCCCN1 (stereo not given)
inactive: SK-MEL-28 > 100 µM | HOP-62 > 100 µM | UACC-62 > 100 µM | CAKI-1 > 100 µM | LOX IMVI > 100 µM | ACHN > 100 µM | SNB-78 > 100 µM | HOP-92 > 100 µM | 786-0 > 100 µM | NCI-H460 > 100 µM | SN12C > 100 µM | UO-31 > 100 µM | COLO 205 > 100 µM

O=P(Nc1ccccc1)(Oc1ccccc1)N1CCN(c2ccccc2)CC1 (stereo not given)
inactive: SK-MEL-28 19.7 µM | HOP-62 18 µM | BT-549 16 µM | SF-539 19.5 µM | NCI-H522 4.85 µM | UACC-62 12.7 µM | SNB-19 15.8 µM | KM12 17.4 µM | SR 34.4 µM | CAKI-1 24.8 µM | LOX IMVI 17.4 µM | SK-MEL-5 19.4 µM | ACHN 22.4 µM | HOP-92 18.7 µM | 786-0 22.1 µM | NCI-H460 17.4 µM | SN12C 17.8 µM | UO-31 14.9 µM | COLO 205 19.6 µM

N=C(N)NCCCC(=O)O
inactive: SK-MEL-28 > 100 µM | HOP-62 > 100 µM | BT-549 > 100 µM | SF-539 > 100 µM | NCI-H522 > 100 µM | UACC-62 > 100 µM | SNB-19 > 100 µM | KM12 > 100 µM | SR > 100 µM | CAKI-1 > 100 µM | LOX IMVI > 100 µM | SK-MEL-5 > 100 µM | ACHN > 100 µM | HOP-92 > 100 µM | 786-0 > 100 µM | NCI-H460 > 100 µM | SN12C > 100 µM | UO-31 > 100 µM | COLO 205 > 100 µM

COc1ccccc1C1SCC(=O)N1c1ccc(-n2c(-c3ccccc3)nc3ccccc3c2=O)cc1 (stereo not given)
inactive: SK-MEL-28 > 100 µM | HOP-62 > 100 µM | BT-549 > 100 µM | SF-539 > 100 µM | NCI-H522 40.3 µM | UACC-62 29.2 µM | SNB-19 > 100 µM | KM12 29.9 µM | SR 81.7 µM | CAKI-1 82 µM | LOX IMVI 77.8 µM | SK-MEL-5 37.5 µM | ACHN 71.8 µM | HOP-92 19.2 µM | 786-0 > 100 µM | NCI-H460 40.7 µM | SN12C > 100 µM | UO-31 9.1 µM | COLO 205 > 100 µM

CCCCCCCCCCCCCC(=O)OCC1OC(=O)CC1O (stereo not given)
inactive: HOP-62 > 100 µM | SF-539 > 100 µM | UACC-62 94 µM | SNB-19 > 100 µM | KM12 81.5 µM | CAKI-1 43 µM | LOX IMVI 51.5 µM | SK-MEL-5 > 100 µM | ACHN > 100 µM | SNB-78 56.1 µM | HOP-92 7.36 µM | 786-0 > 100 µM | NCI-H460 > 100 µM | SN12C > 100 µM | UO-31 20.2 µM | COLO 205 > 100 µM

Cc1ccc2c(c1)OC1Nc3ccccc3C1=C2O (stereo not given)
inactive: SK-MEL-28 53.7 µM | HOP-62 27.4 µM | BT-549 19.7 µM | SF-539 20.1 µM | NCI-H522 28.7 µM | UACC-62 15.9 µM | SNB-19 31.6 µM | KM12 26.4 µM | SR 31.2 µM | CAKI-1 23.2 µM | LOX IMVI 23.8 µM | SK-MEL-5 16.4 µM | ACHN 21.4 µM | HOP-92 38.9 µM | 786-0 20.1 µM | NCI-H460 20.2 µM | SN12C 27.3 µM | UO-31 21.2 µM | COLO 205 14.8 µM

O=C(c1ccncc1)C1C(=O)c2ccccc2C1C1(O)c2ccccc2CC1C(O)c1ccncc1 (stereo not given)
inactive: SK-MEL-28 89.3 µM | HOP-62 35.6 µM | BT-549 45.9 µM | SF-539 77.6 µM | NCI-H522 31.3 µM | UACC-62 18.7 µM | SNB-19 46.2 µM | KM12 35.3 µM | SR 36.7 µM | CAKI-1 34.7 µM | LOX IMVI 33.4 µM | SK-MEL-5 36 µM | ACHN 62.1 µM | HOP-92 47.9 µM | 786-0 39.9 µM | NCI-H460 34.2 µM | SN12C 46.9 µM | UO-31 13.9 µM | COLO 205 47.6 µM

CC1(CO)OC1COCc1ccccc1 (stereo not given)
inactive: HOP-62 > 100 µM | SF-539 > 100 µM | UACC-62 > 100 µM | SNB-19 > 100 µM | KM12 > 100 µM | SR > 100 µM | LOX IMVI > 100 µM | ACHN > 100 µM | SNB-78 > 100 µM | HOP-92 > 100 µM | 786-0 > 100 µM | NCI-H460 > 100 µM | SN12C > 100 µM | UO-31 > 100 µM | COLO 205 > 100 µM

COc1cc2c(NCCCCCO)ncnc2c(OC)c1OC
inactive: SK-MEL-28 > 100 µM | HOP-62 > 100 µM | BT-549 > 100 µM | SF-539 > 100 µM | NCI-H522 > 100 µM | UACC-62 > 100 µM | SNB-19 > 100 µM | KM12 > 100 µM | SR > 87.9 µM | CAKI-1 > 100 µM | LOX IMVI > 100 µM | SK-MEL-5 > 84.7 µM | ACHN > 100 µM | HOP-92 43.8 µM | 786-0 > 100 µM | NCI-H460 > 100 µM | SN12C > 100 µM | UO-31 > 85.9 µM | COLO 205 > 100 µM

COc1ccc(C2Oc3c(cc(O)c(OC)c3C)[C@@H]2C)cc1OC (stereo not given in full)
inactive: SK-MEL-28 > 100 µM | HOP-62 > 100 µM | SF-539 > 100 µM | NCI-H522 34.4 µM | UACC-62 90.2 µM | SNB-19 > 100 µM | KM12 > 100 µM | CAKI-1 37.2 µM | LOX IMVI 82.6 µM | SK-MEL-5 31.6 µM | ACHN > 100 µM | SNB-78 69.8 µM | HOP-92 43 µM | 786-0 > 100 µM | NCI-H460 > 100 µM | UO-31 66.5 µM | COLO 205 > 100 µM

CC1(C)CC2=NC(SSC3=C(C#N)C(c4ccc(Br)cc4)C4=C(O)CC(C)(C)CC4=N3)=C(C#N)C(c3ccc(Br)cc3)C2=C(O)C1 (stereo not given)
inactive: SK-MEL-28 > 100 µM | HOP-62 > 100 µM | BT-549 > 100 µM | SF-539 > 100 µM | NCI-H522 57.7 µM | UACC-62 > 100 µM | SNB-19 > 100 µM | KM12 > 100 µM | SR 48.3 µM | CAKI-1 > 100 µM | LOX IMVI > 100 µM | SK-MEL-5 > 100 µM | ACHN > 100 µM | HOP-92 70.6 µM | 786-0 > 100 µM | NCI-H460 > 100 µM | SN12C > 100 µM | UO-31 > 100 µM | COLO 205 > 100 µM

O=C1c2ccccc2C(=O)N1C(=S)c1ccccc1
inactive: SK-MEL-28 > 100 µM | HOP-62 > 100 µM | BT-549 > 100 µM | SF-539 > 100 µM | NCI-H522 > 100 µM | UACC-62 > 100 µM | SNB-19 > 100 µM | KM12 > 100 µM | SR > 100 µM | CAKI-1 > 100 µM | LOX IMVI > 100 µM | SK-MEL-5 > 100 µM | ACHN > 100 µM | HOP-92 > 100 µM | 786-0 > 100 µM | NCI-H460 > 100 µM | SN12C > 100 µM | UO-31 > 100 µM | COLO 205 > 100 µM

CN(C)CCn1c2c(c3ccccc31)CCc1ccccc1-2
inactive: SK-MEL-28 15.8 µM | HOP-62 15.7 µM | BT-549 14.5 µM | SF-539 13.4 µM | NCI-H522 15.9 µM | UACC-62 13 µM | SNB-19 16.3 µM | KM12 13.4 µM | SR 10.8 µM | CAKI-1 14.9 µM | LOX IMVI 17 µM | SK-MEL-5 6.1 µM | ACHN 16.3 µM | HOP-92 14 µM | 786-0 14.8 µM | NCI-H460 14.4 µM | SN12C 13.8 µM | UO-31 13.6 µM | COLO 205 11.3 µM
